Reference: patent US5886185A, “Polyamine-linked acridine dimers” (Development Center for Biotechnoloy, priority 1997, dated 1999)
≈ marks a conversion by molar mass, not a printed value. Counter-ions that a name gives are not always drawn.

Key:
[1] = tested on: pUC19 plasmid; experiment: DNA intercalating assay (DNA band shift); assay type: binding
Experimental: A culture of JM83 bacteria containing a pUC19 plasmid was grown in 500 mL of ampicillin culture medium, and harvested by centrifugation at 4000 rpm for 15 minutes at 4° C. The pellets were lysed by alkali method and the DNA plasmids were collected as the lower band (corresponding to the closed circular DNA) of a centrifuge tube after CsCl-ethidium bromide gradient centrifugation. This collection method is described in, for example, Molecular Cloning: A Laboratory Manual, Cold Spring Harbor Laboratory Press, (1989). After removal of ethidium bromide from the DNA plasmids with 1-butanol saturated with water, the CsCl was removed by dialysis with TE (pH 8.0) buffer.
The pUC19 plasmid (1 μg in each reaction) was incubated with various concentrations of solutions containing different polyamine-linked acridine dimers for 30 minutes at 25° C. in 20 μL reaction mixtures (10 mM Tris-HCl, pH 7.4, 0.1 mM EDTA, and 5 mM NaCl). After reaction, the DNA mixture was run on a 1.0% agarose gel, which was stained with ethidium bromide and destained with distilled water. The shifts of the DNA bands were visualized using UV light and analyzed by photography. The DNA band shifting pattern formed a sigmoidal curve. The 50% shift concentration (SC50) corresponded to a 50% DNA band shift at the particular concentration, according to the curve of the DNA band-shifting photograph.

[2] = tested on: human COLO 205 solid tumors; experiment: in vivo antitumor activity for human COLO 205 solid tumors; set-up: species or system human tumor in SCID mice
Experimental: SCID mice (16-18 g, 4-5 weeks old) were obtained from the animal center at the medical center of National Taiwan University, Taipei, R.O.C. and allowed to acclimate to their new environment for one week. The mice were given a sterilized pellet diet and sterilized water ad libitum, and housed under specific pathogene-free conditions in a temperature range between 23°-25° C. and a humidity of about 50±10%. The lighting was automatically operated on a 12 hour light/dark cycle. COLO 205 cells were obtained from ATCC, propagated in culture medium, and subcutaneously inoculated into the dorsal site of the mice.
After solid tumors were grown up to a size of about 1 gram, COLO 205F1 was isolated from the primary culture of the solid tumor and inoculated into the dorsal site of the mice. These tumors were grown to a size of approximately 200 mg (i.e., in a range of 100-300 mg). The mice were sorted according to body weight into groups including five mice. The compounds of Examples 5 and 6 were respectively resuspended in various solvents. The dosage of each compound was intraperitoneally (ip) or intravenously (iv) administered with different schedules. Tumor weights at the beginning of chemotherapy and at weekly intervals thereafter were estimated using two dimensional caliper measurements and calculated with the formula for an ellipsoid. Tumor weight was L X W^2 ×0.5, where L is the major axis and […] is the width of the tumor. The percentage of tumor growth (%TGI) was calculated according to the formula (1-(mean tumor weight of treated group/mean tumor weight of control group))×100. The tumor weights were corrected for tumor weight at the beginning of treatment. Tumor growth inhibition data were analyzed for statistical significance using the pooled variance t test. The tumor weights were monitored until termination of experiment.
Several studies of salt preparations, different formulations, and various administration routes and schedules were performed for the compounds of example 5 or 6 in order to identify their in vivo antitumor activities for human COLO 205 solid tumors. Tumor growth inhibitor studies of the compound of Example 5 were carried out in 1% carboxymethyl-cellulose against human COLO 205 solid tumors in SCID mice by ip administration with a schedule of Q4D×3 or by iv administration with a schedule of (Q1D×5)×2. Tumor growth inhibition studies of the compound at Example 6 were carried out in distilled H2 O against human COLO 205 solid tumor in SCID mice by iv administration with a schedule of (Q2D×3)×2 or in 2.5% cremophor against human COLO 205 solid tumor in SCID mice by iv administration with a schedule of (Q2D×3)×2.

[3] = water solubility; assay type: physicochemical; settings: Table I

## O=c1[nH]cc(F)c(=O)[nH]1 [Example 5-Fu, reference compound]
[1]; negative control
  DNA intercalating activity: did not show DNA intercalating activity

## COc1ccc2nc3cc(Cl)ccc3c(NCCCNCCCNc3c4ccc(Cl)cc4nc4ccc(OC)cc34)c2c1 [Example 5]
[2]; 1% carboxymethyl-cellulose, ip, Q4D×3
  in vivo antitumor activity: did not show in vivo antitumor activity
[2]; 1% carboxymethyl-cellulose, iv, (Q1D×5)×2
  in vivo antitumor activity: did not show in vivo antitumor activity

## COc1ccc2nc3cc(Cl)ccc3c(NCCCNCCCNc3c4ccc(Cl)cc4nc4ccc(OC)cc34)c2c1 [Example 6]
[2]; 2.5% cremophor, iv, (Q2D×3)×2
  in vivo antitumor activity, dose-response relationship: had the dose-response relationship of in vivo antitumor activity
[2]; distilled H2O, iv, (Q2D×3)×2
  in vivo antitumor activity: demonstrated in vivo antitumor activity
[3]
  solubility: 8000 µg/mL (≈ 13 mM)

## COc1ccc2nc3cc(Cl)ccc3c(NCCCN(C)CCCNc3c4ccc(Cl)cc4nc4ccc(OC)cc34)c2c1 [Example 12 (acetic acid salt)]
[3]
  solubility: 10000 µg/mL

## COc1cccc2c1C(=O)c1c(O)c3c(c(O)c1C2=O)C[C@@](O)(C(=O)CO)C[C@@H]3O[C@H]1C[C@H](N)[C@H](O)[C@H](C)O1 [adriarnycin, reference compound]
[1]; pUC19 plasmid, 30 minutes, 25° C., pH 7.4, read-out: SC50 (50% shift concentration)
  EC50: 10 to 15 µM
